Assay [1] relates to probiotic bacteria (Lactobacillus species). Kind of assay: Effect of EGCG on growth of probiotic bacteria (OD 600 nm). The class given is cell-based. To be noted: 0.1% EGCG in media, vs control without EGCG. An excerpt:
(§1) FIG. 1. Effect of EGCG on growth of probiotic and pathogenic bacterial species. The growth was monitored by inoculating a 5% inoculum of respective bacterial species into media containing 0.1% of EGCG. Growth was compared to that of control (without EGCG) to determine the influence of EGCG by spectrophotometric method (600 nm). Lactobacillus rhamnosus (LR); Lactobacillus fermentum (LF); Lactobacillus planatarum (LP); Escherichia coli (EC; MTCC 43); Salmonella typhi (ST; MTCC 733); Pseudomonas aeruginosa (PS; MTCC 424); Staphylococcus aureus (SA; MTCC 96); Klebsiella pneumoniae (K; MTCC 109); Shigella flexneri (SF; MTCC 1457); Vibrio cholera (VC; MTCC 3904).
(§2) To test prebiotic efficacy, the effect of EGCG on growth of probiotic bacteria (Lactobacillus species) and pathogenic bacteria [Escherichia coli (EC); Salmonella typhi (ST); Pseudomonas (PS); Staphylococcus aureus (SA); Klebsiella (K); Shigella flexneri (SF); Vibrio cholera (VC)] was assessed. The probiotic bacteria were isolated, identified and characterized while the pathogenic bacteria were procured from MTCC, Chandigarh.

The subject of assay [2] is pathogenic bacteria. Kind of assay: Effect of EGCG on growth of pathogenic bacteria (OD 600 nm). The class given is cell-based. To be noted: 0.1% EGCG in media, vs control without EGCG.
Source text: as §1, §2

Assay [3] concerns splenocytes. Kind of assay: Flow cytometric analysis of splenocyte T cell sub-populations and activation status in aging animals. It is filed as in vivo, swiss albino mice. To be noted: 16 months old mice, oral supplementation 30 days.
Description: The probiotic Lactobacillus, EGCG or a combination of the two were orally administered to aged animals for 31 days before sacrificing and subsequent analysis of various immune and oxidative stress associated parameters.
Effect of synbiotics supplementation on T cells sub-population of aging animals. Animals were fed with respective diets for 31 days following which splenocytes were analyzed by flow cytometry. (A) %CD3+ cells (B) %NK cells and (C) %NKT cells. Bars with different letter indicate significant difference at p<0.05.
Effect of synbiotics supplementation on activation status of T cells sub-population of aging animals. Animals were fed with respective diets for 31 days following which splenocytes were analyzed by flow cytometry. (A) Activated T cells (B) Activated NK cells and (C) Activated NKT cells. Bars with different letter indicate significant difference at p<0.05.
The synbiotic composition of EGCG and probiotic Lactobacillus sp was assessed for effects on cellular immune response using aging murine model. Animals (16 months old) were randomized into four groups of six mice each: 1 control group and 3 experimental groups comprising of either only EGCG (PRE), probiotic Lactobacillus sp (PRO) or a combination of both (SYN). All animals were fed on commercially available pelleted mice chow (Golden feeds, New Delhi, India) and water ad libitum. The experimental animal groups were each supplemented with EGCG (@100 mg/kg/animal/day), probiotic Lactobacilli sp (10^8 cfu/ml) or a combination of both above (synbiotic) respectively for 30 consecutive days. At the end of the feeding regimen, the animals were sacrificed for various immunological and antioxidative analysis.

Molecules are shown by their SMILES.

Turning to `O=C(O[C@@H]1Cc2c(O)cc(O)cc2O[C@@H]1c1cc(O)c(O)c(O)c1)c1cc(O)c(O)c(O)c1` [EGCG, Epigallocatechin gallate], in assay [1] (5% inoculum, average over probiotic species), the “average decrease in growth of probiotics” value turned out to be 14.05%. Also, the “decrease in growth of probiotics, Max” value in assay [1] (maximum among probiotic species) is given as 31%. For the same compound, in assay [1] (minimum among probiotic species), the “decrease in growth of probiotics, Min” value is 1.4%. Moreover, the “average growth inhibition of pathogens” value in assay [2] (5% inoculum, average over all pathogens) worked out at 52.05%. The “growth inhibition of pathogens, Max” value in assay [2] (maximum among pathogens) came out at 89.88%. Moreover, the “growth inhibition of pathogens, Min” value in assay [2] (minimum among pathogens) is 32.7%. Further, the “natural killer T cells (NKT) subpopulation” value in assay [3] is recorded as “no significant difference”. Also, in assay [3] (vs control group), the “activation of NK cells” value is reported as “decrease”, the “activation status of NKT cells” value is recorded as “no changes” and the “numbers of natural killer cells (NK)” value is recorded as “appeared to decrease”.
